Earlier results, collected in PMC2962921 (Chembiochem : a European journal of chemical biology, 2008).
pKd: −log10 of the molar value. Read-outs that look alike come from different tables or passages of the source.

Molecular target: Gαi1*GDP

pKd (binding to heterotrimeric inhibitory G protein Gαi1*GDP)	pKd (R6A peptide, competitor in the equilibrium competition)	Sequence
6.70	–	DKLYWWEFL
–	7.22	MSQTKRLDDQLYWWEYL [R6A]
